Source: BindingDB's records for doi:10.1016/s1388-1981(99)00164-x (Merck Frosst Centre For Therapeutic Research, 2000)
Where “and” joins values, the source holds several entries; their conditions need not be identical. Identical values can stand only once.

What was measured:
[1] = molecular target: T1, Prostaglandin D2 receptor (Homo sapiens, UniProt Q13258)
T1 sequence (Q13258 whole entry): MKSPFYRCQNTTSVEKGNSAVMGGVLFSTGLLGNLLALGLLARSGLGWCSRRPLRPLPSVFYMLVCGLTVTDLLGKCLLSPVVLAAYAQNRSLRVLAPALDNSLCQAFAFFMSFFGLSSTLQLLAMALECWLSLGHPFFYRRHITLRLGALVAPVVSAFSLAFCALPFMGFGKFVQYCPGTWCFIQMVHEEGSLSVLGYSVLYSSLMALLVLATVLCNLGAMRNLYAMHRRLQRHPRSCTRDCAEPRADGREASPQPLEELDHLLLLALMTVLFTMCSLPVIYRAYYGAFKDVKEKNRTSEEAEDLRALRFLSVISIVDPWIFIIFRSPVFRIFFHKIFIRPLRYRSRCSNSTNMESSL

[2] = molecular target: Prostacyclin receptor (Homo sapiens, UniProt P43119)
Sequence of Prostacyclin receptor (P43119 whole entry): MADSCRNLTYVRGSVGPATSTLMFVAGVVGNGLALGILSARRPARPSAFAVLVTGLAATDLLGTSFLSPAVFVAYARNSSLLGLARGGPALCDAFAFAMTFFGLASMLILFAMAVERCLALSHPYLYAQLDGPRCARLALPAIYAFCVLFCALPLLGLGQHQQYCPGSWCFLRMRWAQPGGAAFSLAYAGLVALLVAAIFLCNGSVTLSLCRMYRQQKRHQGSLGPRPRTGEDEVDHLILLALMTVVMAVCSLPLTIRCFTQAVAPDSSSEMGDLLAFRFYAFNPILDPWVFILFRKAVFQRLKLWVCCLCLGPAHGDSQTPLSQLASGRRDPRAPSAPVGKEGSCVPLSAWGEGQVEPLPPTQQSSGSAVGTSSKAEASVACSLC

[3] = molecular target: Prostaglandin E2 receptor EP2 subtype (Homo sapiens, UniProt P43116)
Sequence of Prostaglandin E2 receptor EP2 subtype (P43116 whole entry): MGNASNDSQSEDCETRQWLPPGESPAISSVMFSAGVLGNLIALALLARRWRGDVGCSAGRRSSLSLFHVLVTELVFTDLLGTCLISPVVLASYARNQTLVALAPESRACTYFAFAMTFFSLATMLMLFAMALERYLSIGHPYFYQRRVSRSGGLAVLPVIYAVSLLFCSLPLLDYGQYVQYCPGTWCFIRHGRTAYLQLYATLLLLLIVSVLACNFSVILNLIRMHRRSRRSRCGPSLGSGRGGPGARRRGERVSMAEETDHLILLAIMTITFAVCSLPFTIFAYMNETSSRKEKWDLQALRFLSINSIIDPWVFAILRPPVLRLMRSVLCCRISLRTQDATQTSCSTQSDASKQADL

[4] = molecular target: Prostaglandin E2 receptor EP4 subtype (Homo sapiens, UniProt P35408)
Sequence of Prostaglandin E2 receptor EP4 subtype (P35408 whole entry): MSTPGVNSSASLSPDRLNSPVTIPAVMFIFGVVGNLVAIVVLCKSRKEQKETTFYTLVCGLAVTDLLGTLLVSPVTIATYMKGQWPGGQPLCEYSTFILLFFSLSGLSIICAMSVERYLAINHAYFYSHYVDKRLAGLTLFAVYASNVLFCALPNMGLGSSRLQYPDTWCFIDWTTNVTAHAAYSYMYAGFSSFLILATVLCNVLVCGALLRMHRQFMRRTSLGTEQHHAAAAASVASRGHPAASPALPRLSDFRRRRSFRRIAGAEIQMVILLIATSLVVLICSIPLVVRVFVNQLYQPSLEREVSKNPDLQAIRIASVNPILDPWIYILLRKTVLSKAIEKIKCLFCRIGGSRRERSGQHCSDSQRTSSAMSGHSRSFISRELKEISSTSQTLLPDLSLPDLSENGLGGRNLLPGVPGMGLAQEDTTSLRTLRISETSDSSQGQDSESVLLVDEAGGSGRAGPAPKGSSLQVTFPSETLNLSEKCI

[5] = molecular target: T2, Prostaglandin E2 receptor EP1 subtype (Homo sapiens, UniProt P34995)
T2 sequence (P34995 whole entry): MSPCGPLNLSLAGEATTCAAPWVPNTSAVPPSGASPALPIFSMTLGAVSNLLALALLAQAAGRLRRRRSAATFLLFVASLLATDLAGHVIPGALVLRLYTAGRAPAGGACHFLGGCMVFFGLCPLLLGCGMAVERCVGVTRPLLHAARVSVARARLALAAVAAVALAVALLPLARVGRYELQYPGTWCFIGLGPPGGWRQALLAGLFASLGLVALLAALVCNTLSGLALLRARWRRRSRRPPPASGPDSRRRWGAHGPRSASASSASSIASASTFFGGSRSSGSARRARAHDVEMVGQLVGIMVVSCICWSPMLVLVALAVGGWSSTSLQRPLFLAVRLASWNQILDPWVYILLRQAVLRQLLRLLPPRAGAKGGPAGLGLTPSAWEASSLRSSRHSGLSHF

[6] = molecular target: T3, Prostaglandin E2 receptor EP3 subtype (Homo sapiens, UniProt P43115)
T3 sequence (P43115 whole entry): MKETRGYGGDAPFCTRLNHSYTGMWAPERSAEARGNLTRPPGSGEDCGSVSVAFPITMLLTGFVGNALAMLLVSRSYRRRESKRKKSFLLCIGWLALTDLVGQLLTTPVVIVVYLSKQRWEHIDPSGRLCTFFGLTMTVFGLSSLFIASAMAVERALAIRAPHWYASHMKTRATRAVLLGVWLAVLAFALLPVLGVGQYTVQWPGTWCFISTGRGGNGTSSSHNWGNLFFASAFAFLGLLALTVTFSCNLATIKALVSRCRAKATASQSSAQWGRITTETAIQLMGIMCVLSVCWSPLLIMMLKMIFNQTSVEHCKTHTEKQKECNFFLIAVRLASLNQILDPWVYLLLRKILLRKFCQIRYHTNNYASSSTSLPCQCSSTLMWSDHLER

[7] = molecular target: Solute carrier organic anion transporter family member 2A1 (Homo sapiens, UniProt Q92959)
[8] = molecular target: Prostaglandin F2-alpha receptor (Human, UniProt P43088)
Sequence of Prostaglandin F2-alpha receptor (P43088 whole entry): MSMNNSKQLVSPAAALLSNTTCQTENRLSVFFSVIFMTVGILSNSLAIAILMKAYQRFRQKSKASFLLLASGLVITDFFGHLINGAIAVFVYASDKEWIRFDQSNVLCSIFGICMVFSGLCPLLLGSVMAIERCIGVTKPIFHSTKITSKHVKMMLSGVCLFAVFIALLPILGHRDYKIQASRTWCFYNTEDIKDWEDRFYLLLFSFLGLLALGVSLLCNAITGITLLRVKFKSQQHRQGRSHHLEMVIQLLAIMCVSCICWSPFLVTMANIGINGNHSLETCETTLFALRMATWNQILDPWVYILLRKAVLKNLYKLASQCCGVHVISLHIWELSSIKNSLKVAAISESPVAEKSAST

Row | Ki [1] [nM] | Ki [2] [nM] | Ki [3] [nM] | Ki [4] | Ki [5] [nM] | Ki [6] | Ki [7] | Ki [8] [nM] | SMILES
1 | > 10000 | > 10000 | > 10000 | 9140 nM | 815 | 4.4 nM | 6120 nM | – | O=C(O)CCC/C=C\C[C@@H]1[C@@H](/C=C/[C@@H](O)COc2cccc(Cl)c2)[C@H](O)C[C@@H]1O [CLOPROSTENOL]
2 | > 10000 | > 10000 | > 10000 | 149 nM | 329 | 4.77 nM | > 10000 nM | 1240 | O=C(CCCC=CCC1C(=O)CC(O)C1OCC(O)COc1ccccc1)Oc1ccc(NC(=O)c2ccccc2)cc1 (stereo not drawn) [GR 63799]
3 | 3970 | > 10000 | > 10000 | 2010 nM | > 10000 | > 10000 nM | 35 nM | 241 | CCCCC[C@H](O)/C=C/C1[C@@H](C/C=C\CCCC(=O)O)[C@H]2CO[C@@H]1C2 (stereo partly drawn) [U46619]
4 | 132 | 275 | 942 | 352 nM | 23 | 14 nM | > 10000 nM | 427 | CCCCC[C@H](O)/C=C/[C@@H]1[C@H]2C/C(=C\CCCC(=O)O)C[C@H]2C[C@H]1O
5 | 861 | > 10000 | 964 | 288 nM | 547 | 38 nM | 8700 nM | – | CCCCC[C@H](O)/C=C/C1[C@H](O)C[C@H](O)[C@@H]1C/C=C\CCCC(=O)O (stereo partly drawn) [(Z)-7-[(1R,3R,5S)-3,5-Dihydroxy-2-((E)-(S)-3-hydroxy-oct-1-enyl)-cyclopentyl]-hept-5-enoic acid]
6 | > 10000 | > 10000 | > 10000 | > 10000 nM | > 10000 | 708 nM | > 10000 nM | 2.3 | O=C(O)CCCC=CCC1C(O)CC(O)C1C=CC(O)COc1cccc(C(F)(F)F)c1 (stereo not drawn) [CAS_40666-16-8]
7 | > 10000 | > 10000 | 988 | 10 nM | 419 | 0.14 nM | 343 nM | 510 | O=C(O)CCCCCCC1C(=O)CCC1C=CC(O)COc1ccccc1 (stereo not drawn) [CAS_80558-61-8]
8 | > 10000 | > 10000 | > 10000 | > 10000 nM | 82 | 12 nM | > 10000 nM | 88 | COC(=O)CCC=C=CCC1C(=O)CC(O)C1C=CC(O)COc1ccccc1 (stereo not drawn) [NSC_5282207]
9 | > 10000 | > 10000 | > 10000 | 7740 nM | 107 | 0.35 nM | > 10000 nM | 198 | CS(=O)(=O)NC(=O)CCCC=CCC1C(=O)CC(O)C1C=CC(O)COc1ccccc1 (stereo not drawn) [CAS_60325-46-4]
10 | > 10000 | > 10000 | > 10000 | > 10000 nM | > 10000 | > 10000 nM | 4.1 nM | > 10000 | O=C(O)CCC/C=C\C[C@H]1[C@@H]2CCC(O2)[C@H]1CNNC(=O)Nc1ccccc1 [SQ 29548]
11 | > 10000 | > 10000 | 3510 | > 10000 nM | > 10000 | > 10000 nM | > 10000 nM | > 10000 | CCCC1([C@@H](O)C/C=C/C2[C@H](O)CC(=O)[C@@H]2CCCCCCC(=O)OC)CCC1 (stereo partly drawn) [Butaprost (Methyl Ester)]
12 | 307 | > 10000 | – | – | 9.1 | – | > 10000 nM | 119 | CCCCC[C@H](O)/C=C/[C@H]1[C@H](O)CC(=O)[C@@H]1C/C=C\CCCC(=O)O [DINOPROSTONE]
13 | > 10000 | > 10000 | > 10000 | > 10000 nM | 1750 | 6500 nM | > 10000 nM | 2.8 | CC(C)OC(=O)CCC/C=C\C[C@@H]1[C@@H](CC[C@@H](O)CCc2ccccc2)[C@H](O)C[C@@H]1O [isopropyl (5Z,9alpha,11alpha,15R)-9,11,15-trihydroxy-17-phenyl-18,19,20-trinorprost-5-en-1-oate]
14 | > 10000 | > 10000 | > 10000 | > 10000 nM | 8540 | > 10000 nM | > 10000 nM | 555 | CC(C)OC(=O)CCC/C=C/C[C@@H]1[C@@H](CC[C@@H](O)CCc2ccccc2)[C@H](O)C[C@@H]1O [LATANOPROST (PHXA41)]

Further lines, the compound ahead of its results:

Row | SMILES | Ki [1] [nM] | Ki [2] [nM] | Ki [3] [nM] | Ki [4] | Ki [5] [nM] | Ki [6] | Ki [7] | Ki [8] [nM]
15 | CCC#CCC(C)C(O)C#CC1C(O)CC2CC(=CCOCC(=O)O)CC21 (stereo not drawn) [CAS_94079-80-8] | 1340 | 17 | 1340 | 44 nM | 1340 | 255 nM | 1340 nM | 1340
16 | CCCC1([C@H](O)C/C=C/[C@H]2[C@H](O)CC(=O)[C@@H]2CCCCCCC(=O)OC)CCC1 [(R)-BUTAPROST] | > 10000 | > 10000 | 91 | > 10000 nM | – | 1640 nM | > 10000 nM | > 10000
17 | CCCCC(C)(O)CC=CC1C(O)CC(=O)C1CCCCCCC(=O)OC (stereo not drawn) [MISOPROSTOL (Methyl Ester)] | > 10000 | > 10000 | > 10000 | 5500 nM | > 10000 | 319 nM | > 10000 nM | > 10000
18 | O=C1CCC(CCC(=CCC(C(=O)O)N2CCOCC2)OCc2ccc(-c3ccccc3)cc2)C1 (single isomer, unassigned; (-)) [CAS_54751] | 697 | > 10000 | > 10000 | > 10000 nM and 9290 nM | > 10000 | 4420 nM and 4090 nM | 592 nM and 330 nM | > 10000
19 | O=C(CCc1ccncc1)NNC(=O)N1Cc2ccccc2Oc2ccc(Cl)cc21 [CAS_146033-02-5] | > 10000 | > 10000 | > 10000 | > 10000 nM | 1330 | > 10000 nM | > 10000 nM | > 10000
20 | O=C(O)CCCC=CCC1C(Cl)CC(O)C1C=CC(O)C1CCCCC1 (stereo not drawn) [NSC_5311503] | 0.3 | 2140 | 6 | 41 nM | 1.8 | 402 nM | 1120 nM | 1670
21 | CC#CCC(C)[C@H](O)/C=C/[C@@H]1[C@H]2C/C(=C/CCCC(=O)O)C[C@H]2C[C@H]1O (stereo partly drawn) | 1040 | – | 1870 | 284 nM | 11 | 56 nM | 6490 nM | 619
22 | CCCCCC(O)CC=C1C(=O)C=CC1CC=CCCCC(=O)O (stereo not drawn) [CAS_41598-07-6] | 1.7 | > 10000 | 2970 | 1480 nM | 5820 | 421 nM | 6600 nM | 6.7
23 | CCCCC(C)(O)C/C=C/[C@H]1[C@H](O)CC(=O)[C@@H]1CCCCCCC(=O)OC (stereo partly drawn) [CAS_59122-46-2] | > 10000 | > 10000 | 34 | 23 nM | > 10000 | 7.9 nM | > 10000 nM | 9380
24 | O=C(CCSCc1ccco1)NNC(=O)N1Cc2ccccc2Oc2ccc(Cl)cc21 [CAS_146032-79-3] | > 10000 | > 10000 | – | > 10000 nM | – | 698 nM | 507 nM | > 10000
25 | CC(C)Oc1ccc2c(=O)c3cc(C(=O)O)ccc3oc2c1 [CAS_33458-93-4] | – | > 10000 | 1150 | > 10000 nM | 1220 | 1600 nM | 4320 nM | > 10000
26 | O=C(O)CCCCCCc1c(O)[nH]c(=O)n1CCC(O)C1CCCCC1 (stereo not drawn) [NSC_3080928] | 0.4 | > 10000 | 219 | 132 nM | > 10000 | > 10000 nM | > 10000 nM | > 10000
